In ChEMBL document CHEMBL1201862, “PubChem BioAssay data set” (2004):
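Cells were grown in 96-well plates and exposed to each compound for 48 hours at five concentrations; endpoints were interpolated linearly between bracketing concentrations, or set to the highest concentration if not reached. Abbreviation: GI50, concentration required for 50% inhibition of growth.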 Active and inactive are the calls of the source. Rule as the data show it: active = GI50 up to about 1.1 µM and inactive = higher.

How the values were obtained:
Test in all cases: NCI tumour cell line growth inhibition, 48 h
786-0 = system: 786-0
COLO 205 = system: COLO 205
HCT-15 = system: HCT-15
M14 = system: M14
NCI-H226 = system: NCI-H226
OVCAR-8 = system: OVCAR-8
SF-295 = system: SF-295
SK-MEL-5 = system: SK-MEL-5
SK-OV-3 = system: SK-OV-3
SNB-19 = system: SNB-19
SR = system: SR
KM12 = system: KM12
NCI-H460 = system: NCI-H460
SK-MEL-2 = system: SK-MEL-2
TK-10 = system: TK-10

Compound	GI50 (786-0)	GI50 (COLO 205)	GI50 (HCT-15)	GI50 (M14)	GI50 (NCI-H226)	GI50 (OVCAR-8)	GI50 (SF-295)	GI50 (SK-MEL-5)	GI50 (SK-OV-3)	GI50 (SNB-19)	GI50 (SR)	GI50 (KM12)	GI50 (NCI-H460)	GI50 (SK-MEL-2)	GI50 (TK-10)
COc1ccc2c3ccc4c(c3n(C)c2c1)C(=O)C=CC4=O	17.9 µM (inactive)	18.8 µM (inactive)	42.6 µM	> 100 µM (inactive)	> 100 µM (inactive)	16.9 µM (inactive)	> 100 µM (inactive)	> 100 µM (inactive)	> 100 µM (inactive)	> 100 µM (inactive)	2.84 µM (inactive)	–	–	–	–
CC(C)=CCCC1(C)C=Cc2c(c(C)cc3c2[nH]c2cc(O)ccc23)O1 (stereo not drawn)	> 25 µM (inactive)	> 25 µM (inactive)	> 25 µM	> 25 µM (inactive)	> 25 µM (inactive)	> 25 µM (inactive)	–	> 25 µM (inactive)	> 25 µM (inactive)	> 25 µM (inactive)	24 µM (inactive)	> 25 µM (inactive)	> 25 µM (inactive)	> 25 µM (inactive)	> 25 µM (inactive)
COc1ccc(/C=C/COC(C)=O)cc1OC	> 100 µM (inactive)	> 100 µM (inactive)	> 100 µM	–	> 100 µM (inactive)	> 100 µM (inactive)	> 100 µM (inactive)	> 100 µM (inactive)	> 100 µM (inactive)	> 100 µM (inactive)	> 100 µM (inactive)	> 100 µM (inactive)	–	> 100 µM (inactive)	> 100 µM (inactive)
Cc1ccc([S+]([O-])c2ccccc2[N+](=O)[O-])cc1 (stereo not drawn)	> 100 µM (inactive)	–	65 µM	> 100 µM (inactive)	30.5 µM (inactive)	> 100 µM (inactive)	> 100 µM (inactive)	70 µM (inactive)	> 100 µM (inactive)	58.3 µM (inactive)	46 µM (inactive)	54.6 µM (inactive)	79.8 µM (inactive)	> 100 µM (inactive)	> 100 µM (inactive)
O=C(/C=C/c1ccccc1O)C(c1ccccc1)c1ccccc1	51.1 µM (inactive)	39.3 µM (inactive)	> 100 µM	> 100 µM (inactive)	> 100 µM (inactive)	> 100 µM (inactive)	> 100 µM (inactive)	> 100 µM (inactive)	> 100 µM (inactive)	> 100 µM (inactive)	> 100 µM (inactive)	98.9 µM (inactive)	> 100 µM (inactive)	> 100 µM (inactive)	> 100 µM (inactive)
C#CCn1c(=O)[nH]c(=O)c2cccnc21	> 100 µM (inactive)	> 100 µM (inactive)	> 100 µM	> 100 µM (inactive)	> 100 µM (inactive)	–	> 100 µM (inactive)	> 100 µM (inactive)	> 100 µM (inactive)	> 100 µM (inactive)	> 100 µM (inactive)	> 100 µM (inactive)	–	> 100 µM (inactive)	> 100 µM (inactive)
CCOC(=O)C(C)(C)Oc1ccc(/C=C/C(=O)c2ccc(Cl)cc2)cc1	17.2 µM (inactive)	24 µM (inactive)	17.2 µM	18.4 µM (inactive)	30 µM (inactive)	21.6 µM (inactive)	21 µM (inactive)	14.9 µM (inactive)	–	19.2 µM (inactive)	27.3 µM (inactive)	–	28.7 µM (inactive)	20.7 µM (inactive)	70.8 µM (inactive)
c1ccc2c(c1)C1=NCCN1c1ccccc1-2	2.6 µM (inactive)	1.38 µM (inactive)	3.1 µM	4.01 µM (inactive)	–	2.51 µM (inactive)	5.09 µM (inactive)	2.49 µM (inactive)	4.9 µM (inactive)	3.46 µM (inactive)	0.502 µM (active)	2.96 µM (inactive)	1.77 µM (inactive)	3.19 µM (inactive)	2.49 µM (inactive)
O=C(O)C(CS)Nc1c2ccccc2nc2ccccc12 (stereo not drawn)	> 100 µM (inactive)	37.7 µM (inactive)	51.3 µM	43.7 µM (inactive)	> 100 µM (inactive)	48.3 µM (inactive)	56.9 µM (inactive)	–	> 100 µM (inactive)	61.1 µM (inactive)	36.3 µM (inactive)	59.6 µM (inactive)	36.1 µM (inactive)	83.9 µM (inactive)	35.6 µM (inactive)
O=C1CCCC(O)=C1SC1=C(O)CCCC1=O	81.1 µM (inactive)	> 100 µM (inactive)	47.2 µM	56.4 µM (inactive)	> 100 µM (inactive)	> 100 µM (inactive)	> 100 µM (inactive)	> 100 µM (inactive)	> 100 µM (inactive)	> 100 µM (inactive)	–	> 100 µM (inactive)	–	> 100 µM (inactive)	> 100 µM (inactive)
COc1ccc2c(c1)CCc1c(C(C)=O)c3ccccc3n1C2	31.6 µM (inactive)	> 100 µM (inactive)	–	94.6 µM (inactive)	–	28.1 µM (inactive)	12.7 µM (inactive)	6.19 µM (inactive)	–	38.5 µM (inactive)	28.7 µM (inactive)	> 100 µM (inactive)	47.3 µM (inactive)	–	60.4 µM (inactive)
CC(=O)n1cc(CC(C)O)c(=O)[nH]c1=O (stereo not drawn)	> 100 µM (inactive)	> 100 µM (inactive)	> 100 µM	> 100 µM (inactive)	> 100 µM (inactive)	> 100 µM (inactive)	> 100 µM (inactive)	> 100 µM (inactive)	> 100 µM (inactive)	> 100 µM (inactive)	> 100 µM (inactive)	> 100 µM (inactive)	> 100 µM (inactive)	> 100 µM (inactive)	> 100 µM (inactive)
CS(=O)(=O)C1S(=O)(=O)OCCOS1(=O)=O	> 100 µM (inactive)	> 100 µM (inactive)	–	> 100 µM (inactive)	7.93 µM (inactive)	> 100 µM (inactive)	> 100 µM (inactive)	> 100 µM (inactive)	> 100 µM (inactive)	> 100 µM (inactive)	> 100 µM (inactive)	> 100 µM (inactive)	> 100 µM (inactive)	–	> 100 µM (inactive)
CC(C)(C)c1ccc2c(c1)S(=O)(=O)Nc1cccc(c1)NS(=O)(=O)c1cc(C(C)(C)C)ccc1OCCOCCO2	> 100 µM (inactive)	> 100 µM (inactive)	> 100 µM	> 100 µM (inactive)	> 100 µM (inactive)	> 100 µM (inactive)	> 100 µM (inactive)	> 100 µM (inactive)	> 100 µM (inactive)	> 100 µM (inactive)	–	> 100 µM (inactive)	> 100 µM (inactive)	> 100 µM (inactive)	> 100 µM (inactive)
OC1OC2COC(c3ccccc3)OC2C(O)C1O (stereo not drawn)	> 100 µM (inactive)	> 100 µM (inactive)	> 100 µM	> 100 µM (inactive)	> 100 µM (inactive)	> 100 µM (inactive)	> 100 µM (inactive)	> 100 µM (inactive)	> 100 µM (inactive)	> 100 µM (inactive)	–	> 100 µM (inactive)	> 100 µM (inactive)	> 100 µM (inactive)	> 100 µM (inactive)
N#CC(NNC(=O)c1ccccc1O)c1ccccc1O (stereo not drawn)	3.55 µM (inactive)	33.5 µM (inactive)	3.85 µM	5.65 µM (inactive)	3.18 µM (inactive)	3.58 µM (inactive)	9.23 µM (inactive)	8.89 µM (inactive)	9.53 µM (inactive)	–	0.472 µM (active)	5.82 µM (inactive)	4.85 µM (inactive)	31.3 µM (inactive)	68.9 µM (inactive)
Cc1ccc(S(=O)(=O)N/N=C(\c2nc3ccc(Cl)cc3[nH]c2=O)C(O)c2ccco2)cc1 (stereo not drawn)	> 100 µM (inactive)	> 100 µM (inactive)	> 100 µM	> 100 µM (inactive)	> 100 µM (inactive)	–	> 100 µM (inactive)	> 100 µM (inactive)	–	> 100 µM (inactive)	–	66.8 µM (inactive)	> 100 µM (inactive)	> 100 µM (inactive)	> 100 µM (inactive)
Cc1cn(C2CC(O)C(COC(=O)c3ccccc3)O2)c(=O)[nH]c1=O (stereo not drawn)	> 100 µM (inactive)	> 100 µM (inactive)	> 100 µM	> 100 µM (inactive)	–	> 100 µM (inactive)	> 100 µM (inactive)	> 100 µM (inactive)	–	> 100 µM (inactive)	> 100 µM (inactive)	> 100 µM (inactive)	> 100 µM (inactive)	–	> 100 µM (inactive)
CC(C)(C)C(=O)/C=C/c1ccc(Oc2ccccc2)cc1	19.4 µM (inactive)	–	> 10 µM	15.3 µM (inactive)	19.6 µM (inactive)	30.7 µM (inactive)	24.8 µM (inactive)	16.2 µM (inactive)	37.9 µM (inactive)	26.2 µM (inactive)	–	14.8 µM (inactive)	19.2 µM (inactive)	16.7 µM (inactive)	26.6 µM (inactive)
Cn1c(=O)c2nc3sc4ccccc4c(=N)n3c2n(C)c1=O	> 100 µM (inactive)	> 100 µM (inactive)	–	–	25.1 µM (inactive)	> 100 µM (inactive)	> 100 µM (inactive)	> 100 µM (inactive)	> 100 µM (inactive)	> 100 µM (inactive)	> 100 µM (inactive)	> 100 µM (inactive)	> 100 µM (inactive)	> 100 µM (inactive)	> 100 µM (inactive)
CC1=C(C(=O)NCc2ccccc2)C(c2ccccc2[N+](=O)[O-])C(C(=O)NCc2ccccc2)=C(C)N1	12.8 µM (inactive)	18.7 µM (inactive)	7.8 µM	11.7 µM (inactive)	16.2 µM (inactive)	13.1 µM (inactive)	12.4 µM (inactive)	13.1 µM (inactive)	–	14.2 µM (inactive)	5.13 µM (inactive)	10.4 µM (inactive)	14 µM (inactive)	–	17.6 µM (inactive)
